Target: T1, LXR α (Homo sapiens, UniProt Q13133)
T1 construct: Co-transfection expression plasmids, comprising full-length LXR α (pCMX-hLXR α); expressed in transfected cells; host or cells: CV-1 African Green Monkey kidney cells, transient transfection
T1 sequence (Q13133 1-447): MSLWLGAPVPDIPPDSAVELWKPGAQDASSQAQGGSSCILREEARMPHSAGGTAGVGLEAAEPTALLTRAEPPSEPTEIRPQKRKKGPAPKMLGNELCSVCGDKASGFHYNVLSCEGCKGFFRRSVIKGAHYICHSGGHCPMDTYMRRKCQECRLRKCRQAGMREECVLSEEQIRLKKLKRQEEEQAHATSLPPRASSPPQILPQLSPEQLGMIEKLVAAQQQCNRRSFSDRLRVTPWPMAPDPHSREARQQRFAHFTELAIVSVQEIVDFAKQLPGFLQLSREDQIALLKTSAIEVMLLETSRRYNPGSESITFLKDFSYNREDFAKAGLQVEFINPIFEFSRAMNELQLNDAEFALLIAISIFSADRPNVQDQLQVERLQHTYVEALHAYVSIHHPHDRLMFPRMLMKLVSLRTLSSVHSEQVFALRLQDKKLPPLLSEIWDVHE
T1 sequence (P19793 1-462 partner): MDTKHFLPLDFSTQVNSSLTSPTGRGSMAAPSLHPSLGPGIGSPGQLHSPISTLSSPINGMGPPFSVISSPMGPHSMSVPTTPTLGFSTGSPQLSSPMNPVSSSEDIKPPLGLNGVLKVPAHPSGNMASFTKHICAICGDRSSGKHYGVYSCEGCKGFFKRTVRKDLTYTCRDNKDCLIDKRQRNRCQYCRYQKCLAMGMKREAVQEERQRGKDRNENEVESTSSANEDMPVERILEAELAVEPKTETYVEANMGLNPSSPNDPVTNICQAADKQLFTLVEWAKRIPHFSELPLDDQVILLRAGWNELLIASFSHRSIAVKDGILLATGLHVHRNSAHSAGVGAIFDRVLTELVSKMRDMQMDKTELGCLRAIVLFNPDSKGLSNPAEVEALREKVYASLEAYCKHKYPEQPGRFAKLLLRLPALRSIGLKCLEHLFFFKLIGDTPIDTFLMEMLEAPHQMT
Experiment: LXR/LXRE co-transfection assay (luciferase reporter, CV-1 cells)
Assay type: cell-based
Details: for Emax: CV-1, average percent efficacy, relative to control N-(3-((4-fluorophenyl)-(naphthalene-2-sulfonyl)amino)propyl)-2,2-dimethylpropionamide, read-out: % Eff(a); for EC50: average EC50 for agonism, cotransfection assay, CV-1 cells
Source text: To measure the ability of compounds to activate or inhibit the transcriptional activity of LXR in a cell based assay, the co-transfection assay was used. It has been shown that LXR functions as a heterodimer with RXR. For the co-transfection assay, expression plasmids for LXR and RXR are introduced via transient transfection into mammalian cells along with a luciferase reporter plasmid that contains one copy of a DNA sequence that is bound by LXR-RXR heterodimers (LXRE; Willy, P. et al. 1995). Treatment of transfected cells with an LXR agonist increases the transcriptional activity of LXR, which is measured by an increase in luciferase activity.
1. CV-1 African Green Monkey Kidney Cells
2. Co-transfection expression plasmids, comprising full-length LXR α (pCMX-hLXR α), LXR β (pCMX-hLXR β), or RXR α (pCMX-RXR), reporter plasmid (LXREx1-Tk-Luciferase), and control (pCMX-Galactosidase expression vector) (Willey et al. Genes & Development 9 1033-1045 (1995)).
CV-1 cells were prepared 24 hours prior to the experiment by plating them into T-175 flasks or 500 cm^2 dishes in order to achieve 70-80% confluency on the day of the transfection. The number of cells to be transfected was determined by the number of plates to be screened. Each 384 well plate requires 1.92×10^6 cells or 5000 cells per well. DNA Transfection Reagent was prepared by mixing the required plasmid DNAs with a cationic lipid transfection reagent FuGENE6 (Roche) by following the instructions provided with the reagents. Optimal DNA amounts were determined empirically per cell line and size of vessel to be transfected. 10-12 mL of media was added to the DNA Transfection Reagent and this mixture was added to the cells after aspirating media from the T175 cm^2 flask. Cells were then incubated at least 5 hours at 37° C. to prepare screening cells.
Luciferase assay reagent was prepared by combining before use (per 10 mL):
Assay plates were prepared by dispensing 5 μL of compound per well of a 384 well plate to achieve final compound concentration of 10 μM and no more than 1% DMSO. Media was removed from the screening cells, the cells trypsinized, harvested cells by centrifugation, counted, and plated at a density of approximately 5000 cells per well in the 384 well assay plate prepared above in a volume of about 45 μL. Assay plates containing both compounds and screening cells (50 μL in total volume) were incubated for 20 hours at 37° C.
After incubation with compounds, media was removed from the cells and lysis buffer (30 μuL/well) added. After 30 minutes at ambient temperature, luciferase assay buffer (30 μL/well) was added and the assay plates read on a luminometer (PE Biosystems Northstar reader with on-board injectors, or equivalent). Plates were read immediately after addition of luciferase assay buffer.
The LXR/LXRE co-transfection assay can be used to establish the EC50/IC50 values for potency and percent activity or inhibition for efficacy. Efficacy defines the activity of a compound relative to a high control ((N-(3-((4-fluorophenyl)-(naphthalene-2-sulfonyl)amino)propyl)-2,2-dimethylpropionamide)) or a low control (DMSO/vehicle). The dose response curves are generated from an 8 point curve with concentrations differing by ½ LOG units. Each point represents the average of 4 wells of data from a 384 well plate.
The data from this assay is fitted to the following equation, from the EC50 value may be solved: Y=Bottom+(Top-Bottom)/(1+10^((logEC50-X*HillSlope))
The EC50/IC50 is therefore defined as the concentration at which an agonist or antagonist elicits a response that is half way between the Top (maximum) and Bottom (baseline) values. The EC50/IC50 values represented are the averages of at least 3 independent experiments. […]

Row | SMILES | Emax [%] | EC50 [nM]
1 | Cc1ccc(Cn2c(C#CC(C)(C)O)cc3ccccc3c2=O)c(C)c1 [2-(2,4-dimethylbenzyl)-3-(3-hydroxy-3-methylbut-1-ynyl)-2H-isoquinolin-1-one] | 40 to 90 | > 500
2 | Cc1ccc(Cn2c(-c3ccc(Oc4ccccc4)cc3)cc3ccccc3c2=O)c(C)c1 [2-(2,4-dimethylbenzyl)-3-(4-phenoxyphenyl)-2H-isoquinolin-1-one] | > 90 | 10 to 150
3 | Cc1cccc(-c2cc3ccccc3c(=O)n2Cc2ccc(C)cc2C)c1 [2-(2,4-dimethylbenzyl)-3-m-tolyl-2H-isoquinolin-1-one] | 40 to 90 | 150 to 500
4 | Cc1ccc(Cn2c(-c3ccsc3)cc3ccccc3c2=O)c(C)c1 [2-(2,4-dimethylbenzyl)-3-thiophen-3-yl-2H-isoquinolin-1-one] | 40 to 90 | > 500
5 | Cc1cccc(-c2cc3ccccc3c(=O)n2Cc2ccccc2)c1 [2-benzyl-3-m-tolyl-2H-isoquinolin-1-one] | < 40 | > 500
6 | O=c1c2c(Cl)cccc2cc(-c2cc(-c3cc(C(F)(F)F)cc(C(F)(F)F)c3)co2)n1Cc1ccc(F)cc1F [3-[4-(3,5-bis-trifluoromethylphenyl)furan-2-yl]-8-chloro-2-(2,4-difluorobenzyl)-2H-isoquinolin-1-one] | 40 to 90 | 10 to 150
7 | Nc1ccc(-c2coc(-c3cc4cccc(Cl)c4c(=O)n3Cc3ccc(F)cc3F)c2)cc1C(F)(F)F [3-[4-(4-amino-3-trifluoromethylphenyl)furan-2-yl]-8-chloro-2-(2,4-difluorobenzyl)-2H-isoquinolin-1-one] | > 90 | < 10
8 | O=c1c2c(Cl)cccc2cc(-c2ccc(Oc3ccccc3)cc2)n1Cc1ccc(F)cc1F [8-chloro-2-(2,4-difluorobenzyl)-3-(4-phenoxyphenyl)-2H-isoquinolin-1-one] | > 90 | 10 to 150
9 | O=c1c2c(Cl)cccc2cc(-c2ccc(Oc3cnccn3)cc2)n1Cc1ccc(F)cc1F [8-chloro-2-(2,4-difluorobenzyl)-3-[4-(pyrazin-2-yloxy)phenyl]-2H-isoquinolin-1-one] | > 90 | < 10
10 | CS(=O)(=O)c1ccc(-c2ccc(-c3cc4cccc(Cl)c4c(=O)n3Cc3ccc(F)cc3F)s2)cc1 [8-chloro-2-(2,4-difluorobenzyl)-3-[5-(4-methanesulfonylphenyl)thiophen-2-yl]-2H-isoquinolin-1-one] | 40 to 90 | 10 to 150
11 | O=c1c2c(Cl)cccc2cc(-c2ccc(Oc3ccccc3)cc2)n1CC1CCCCC1 [8-chloro-2-cyclohexylmethyl-3-(4-phenoxyphenyl)-2H-isoquinolin-1-one] | 40 to 90 | 10 to 150
12 | O=c1c2c(Cl)cccc2cc(-c2ccc(Oc3ccccc3)cc2)n1Cc1cccs1 [8-chloro-3-(4-phenoxyphenyl)-2-thiophen-2-ylmethyl-2H-isoquinolin-1-one] | 40 to 90 | 10 to 150
13 | CCOc1ccc(-c2csc(-c3cc4cccc(Cl)c4c(=O)n3Cc3ccc(F)cc3F)c2)cc1Cl [8-chloro-3-[4-(3-chloro-4-ethoxyphenyl)thiophen-2-yl]-2-(2,4-difluorobenzyl)-2H-isoquinolin-1-one] | 40 to 90 | 10 to 150
14 | Cc1ccc(Cn2c(-c3ccc(Oc4ccccc4)cc3)cc3cccc(C)c3c2=O)cc1 [8-methyl-2-(4-methylbenzyl)-3-(4-phenoxyphenyl)-2H-isoquinolin-1-one] | 40 to 90 | 10 to 150

— patent publication US7265131B2, “Isoquinolinone derivatives and their use as therapeutic agents” (Exelixis, Inc., priority 2002, dated 2007)
